Reference: article PMC6050537, “Inhibition of low-density lipoprotein receptor degradation with a cyclic peptide that disrupts the homodimerization of IDOL E3 ubiquitin ligase” (Chemical Science, 2018)
Where two headings read alike, the source gives them in different places. One block for each compound: values may come before it. Residues, ends and D or L forms follow the SMILES beside them.

Assays:
[1] = Solubility (qualitative remarks); assay type: physicochemical
HepG2 cells = conditions: concentrations up to 100 μM, 72 h
Protocol: (§1) Cell viability was assessed using the CellTiter-Glo 2.0 assay (Promega) according to the manufacturer's instructions. Briefly, cells were plated at a density of 3.3 × 10^4 cells per well in a 96 well plate and incubated overnight (37 °C, 5% CO2). Cells were treated with increasing concentrations of inhibitor and incubated in lipoprotein depleted serum for 72 h (37 °C, 5% CO2). The plate was equilibrated to room temperature for 30 min prior to the addition an equal volume of CellTiter-Glo 2.0 (Promega) reagent to media. The contents were mixed for 2 min on an orbital shaker to induce cell lysis and the plate incubated at room temperature for 10 min prior to the detection of a luminescent signal.
(§2) Supplementary Figure 11. Cellular viability following peptide treatment. The viability of
(§3) (a ) He pG2 a nd (b ) DIDOL He p G2 cells was determined following treatment with increasing
(§4) concentrations of TAT-RINGPe p2 and TAT-ScramPep (100 µM). […]

ΔIDOL HepG2 cells = conditions: concentrations up to 100 μM, 72 h
Protocol: as §1, §2, §3, §4

[2] = molecular target: T1, 6× His-tagged, full-length IDOL (Homo sapiens, UniProt Q8WY64); assay: Surface plasmon resonance (SPR) affinity for IDOL; assay type: binding; conditions: for Kd: SPR, immobilized full-length His-IDOL, saturation at highest concentrations not observed; for binding to IDOL by SPR: linear counterparts of the cyclic peptides
T1 construct: Full length IDOL (1–445) was cloned with a TEV cleavable N-terminal 6xHis tag; made in house; host or cells: Spodoptera frugiperda Sf21 (baculovirus, pFastbac1)
T1 sequence (Q8WY64 1-445): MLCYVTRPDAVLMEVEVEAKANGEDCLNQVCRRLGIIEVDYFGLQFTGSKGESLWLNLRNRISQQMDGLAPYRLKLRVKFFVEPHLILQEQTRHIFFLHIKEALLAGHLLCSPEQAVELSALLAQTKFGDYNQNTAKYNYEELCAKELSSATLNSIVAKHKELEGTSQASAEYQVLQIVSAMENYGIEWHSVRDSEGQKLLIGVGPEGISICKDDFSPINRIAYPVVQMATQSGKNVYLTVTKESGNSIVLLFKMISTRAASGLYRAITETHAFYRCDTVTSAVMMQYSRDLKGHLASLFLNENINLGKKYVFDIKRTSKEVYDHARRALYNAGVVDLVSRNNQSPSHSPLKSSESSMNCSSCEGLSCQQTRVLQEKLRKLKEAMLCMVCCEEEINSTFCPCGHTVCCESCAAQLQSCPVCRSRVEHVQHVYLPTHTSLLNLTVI
Description: We initially assessed the affinity of the 6 selected cyclic peptides for IDOL by surface plasmon resonance (SPR). Although saturation at the highest concentrations was not observed, due to hydrophobic effects, Kd values could be determined for five peptides (Table 1). […] The hit rate for our IDOL screen is in line with that for previous SICLOPPS screens.[21],[25] It should be noted that although cyclo-CTIFLL and cyclo-CTLILF contain the same amino acids, changing the order in which these are arranged results in activity loss.
All measurements were performed on a Biacore S200 (GE healthcare) using running buffer 10 mM HEPES, 300 mM NaCl, 1 mM TCEP, 0.05% Tween 20 and 4% DMSO at pH 8.0. In brief, 6× His-tagged, full-length IDOL was immobilized on a NTA-chip (Xantec), to a final level of ∼6000 RU. The chip was pre-loaded with Ni^2+ to facilitate efficient capture of His-tagged protein onto the chip. The activity of the immobilized protein was confirmed using a reference compound.
Supplementary Figure 2. […] Saturation of binding was not observed due to the hydrophobic nature of the peptides
(1 picture or pasted object on this page, not shown here)

FERM domain of IDOL = test system: T2, FERM domain of IDOL; assay: 1H 15N HSQC NMR binding to FERM domain (negative control)
T2 construct: made in house; host or cells: E. coli BL21
Description: (§5) The lead candidates, cyclo-CTIFLL and cyclo-CFFLYT, were next analyzed for binding to the RING domain of IDOL by ^1H ^15N HSQC NMR. We also assessed the binding of each peptide to the FERM domain of IDOL as a negative control. […] It should be noted that the 3 residues affected by cyclo-CFFLYT (named RINGPep1) form part of the PPI interface in the crystal structure of the homodimerized RING domains of IDOL (Fig. 1c and ESI Fig. 6 ^†).[15] Furthermore, mutation of V431R coupled with a L433R mutation is known to result in a dimer deficient IDOL.[15]
(§6) ^15N-labeled RING and FERM domains were prepared for NMR experiments by buffer exchange using Amicon Ultra-4 Centrifugal Filter Units with 3 kDa molecular weight cut-off membranes. Buffer conditions for the NMR studies were 50 mM TRIS-d11 pH 7.5, 200 mM NaCl, 3 mM TCEP, 10% (v/v) D2O for the RING domain and 25 mM TRIS-d11, 25 mM NaPi, pH 7.5, 300 mM NaCl, 3 mM TCEP, 10% (v/v) D2O for the FERM domain. The protein concentrations were 80 μM and 70 μM, for the RING and FERM domain respectively. Two-dimensional NMR SOFAST-HMQC titration experiments were carried out on a Bruker 600 MHz spectrometer equipped with a cryoprobe. […]

RING domain of IDOL = test system: T3, RING domain of IDOL; assay: 1H 15N HSQC NMR binding to RING domain
T3 construct: IDOL RING domain (G356-I445) was expressed as TEV cleavable N-terminal HN6-Lysine-Tag; HN6-Lysine-Tag (TEV-cleavable) (N); made in house; host or cells: E. coli (pET vector)
Description: as §5, §6

6× His IDOL = molecular target: T4, 6× His IDOL (Homo sapiens, UniProt Q8WY64); assay: Microscale thermophoresis (MST) binding to IDOL; conditions: full length His-IDOL (44 nM)
T4 construct: Full length IDOL (1–445) was cloned with a TEV cleavable N-terminal 6xHis tag; made in house; host or cells: Spodoptera frugiperda Sf21 (baculovirus, pFastbac1)
T4 sequence (Q8WY64 1-445): T1 sequence (Q8WY64 1-445)
Description: We sought to improve the affinity of RINGPep1 prior to assessing its effect in cells. We used alanine-scanning to identify residues that were critical to the activity of RINGpep1; we constructed 5 SICLOPPS plasmids where each amino acid (except the set cysteine, which is required for intein splicing) was replaced with alanine. These plasmids were transformed into the IDOL RTHS and assessed for disruption of IDOL homodimerization by drop-spotting. […] We therefore synthesized a handful of RINGPep1 analogues with the second position containing a non-natural phenylalanine analogue. After purification, the affinity of each of these compounds for IDOL was assessed by MST. […] The ability of RINGpep2 to disrupt IDOL homodimerization was assessed in vitro using a competition assay in which increasing concentrations of IDOL were titrated into a 45 nM solution of dye-labelled IDOL. Binding of non-labelled IDOL to dye-labelled IDOL will be observed in the MST signal, allowing the Kd of IDOL homodimerization to be quantified. Using this approach, we measured a Kd of 2.9 ± 0.1 μM for IDOL homodimerization. The experiment was repeated in the presence of RINGpep2 (100 μM), with the expectation that the apparent Kd of IDOL homodimerization would increase in the presence of an inhibitor of IDOL homodimerization.
MST was performed on a Monilith NT.115 system (Nano Temper Technologies, DE). […]

Compound: CC(C)C[C@@H]1NC(=O)[C@H](CC2CCCCC2)NC(=O)[C@H](Cc2ccccc2)NC(=O)[C@H](CS)NC(=O)[C@H]([C@@H](C)O)NC(=O)[C@H](Cc2ccc(O)cc2)NC1=O [RINGPep2, cyclo-CF-Cha-LYT] (HELM PEPTIDE1{C.F.[Cha].L.Y.T}$PEPTIDE1,PEPTIDE1,1:R1-6:R2$$$V2.0)
solubility in the assay buffer ([1]; autoubiquitination assay buffer): poor solubility
water solubility ([1]; compared with the 3-(1-naphthyl)-L-alanine analogue): marginally better

Compound: CC(C)C[C@@H]1NC(=O)[C@H](CC2CCCCC2)NC(=O)[C@H](Cc2ccccc2)NC(=O)[C@H](CSSC[C@H](N)C(=O)NCC(=O)N[C@@H](CCCNC(=N)N)C(=O)N[C@@H](CCCCN)C(=O)N[C@@H](CCCCN)C(=O)N[C@@H](CCCNC(=N)N)C(=O)N[C@@H](CCCNC(=N)N)C(=O)N[C@@H](CCC(N)=O)C(=O)N[C@@H](CCCNC(=N)N)C(=O)N[C@@H](CCCNC(=N)N)C(=O)N[C@@H](CCCNC(=N)N)C(=O)N2CCC[C@H]2C(=O)N2CCC[C@H]2C(=O)N[C@@H](CCC(N)=O)C(=O)O)NC(=O)[C@H]([C@@H](C)O)NC(=O)[C@H](Cc2ccc(O)cc2)NC1=O [Tat-RINGPep2]
toxicity (HepG2 cells): no toxicity
toxicity (ΔIDOL HepG2 cells): no toxicity

Compound: CC(C)C[C@@H]1NC(=O)[C@H](Cc2ccc(O)cc2)NC(=O)[C@H](CSSC[C@H](N)C(=O)NCC(=O)N[C@@H](CCCNC(=N)N)C(=O)N[C@@H](CCCCN)C(=O)N[C@@H](CCCCN)C(=O)N[C@@H](CCCNC(=N)N)C(=O)N[C@@H](CCCNC(=N)N)C(=O)N[C@@H](CCC(N)=O)C(=O)N[C@@H](CCCNC(=N)N)C(=O)N[C@@H](CCCNC(=N)N)C(=O)N[C@@H](CCCNC(=N)N)C(=O)N2CCC[C@H]2C(=O)N2CCC[C@H]2C(=O)N[C@@H](CCC(N)=O)C(=O)O)NC(=O)[C@H](CC2CCCCC2)NC(=O)[C@H]([C@@H](C)O)NC(=O)[C@H](Cc2ccccc2)NC1=O [Tat-ScramPep]
toxicity (HepG2 cells): no toxicity
toxicity (ΔIDOL HepG2 cells): no toxicity

Compound: CC[C@H](C)[C@@H]1NC(=O)[C@H](Cc2ccccc2)NC(=O)[C@H](C(C)C)NC(=O)[C@H]([C@@H](C)O)NC(=O)[C@H](CS)NC(=O)[C@H]([C@@H](C)CC)NC1=O [cyclo-CTVFII] (HELM PEPTIDE1{C.T.V.F.I.I}$PEPTIDE1,PEPTIDE1,1:R1-6:R2$$$V2.0)
Kd [2]: No activity

Compound: CFFLYT [linear counterpart of cyclo-CFFLYT]
binding to IDOL by SPR [2]: no binding observed

Compound: cyclo-CYLFT[Cha] [ScramPep]
binding to IDOL by MST (6× His IDOL): did not bind

The next lines start with results.

Kd ([2]; read-out: Kd): ~3000 µM
Compound: CC[C@H](C)[C@@H]1NC(=O)[C@H](CC(C)C)NC(=O)[C@H](Cc2ccccc2)NC(=O)[C@H](CC(C)C)NC(=O)[C@H](CCCNC(=N)N)NC(=O)[C@H](CS)NC1=O [cyclo-CRLFLI] (HELM PEPTIDE1{C.R.L.F.L.I}$PEPTIDE1,PEPTIDE1,1:R1-6:R2$$$V2.0)

Kd ([2]; read-out: Kd): ~1000 µM
Compound: CC[C@H](C)[C@@H]1NC(=O)[C@H](C(C)C)NC(=O)[C@H](C(C)C)NC(=O)[C@H](CO)NC(=O)[C@H](CS)NC(=O)[C@H](CC(C)C)NC1=O [cyclo-CSVVIL] (HELM PEPTIDE1{C.S.V.V.I.L}$PEPTIDE1,PEPTIDE1,1:R1-6:R2$$$V2.0)

Kd ([2]; read-out: Kd): 20.9 ± 11 µM
Compound: CC[C@H](C)[C@@H]1NC(=O)[C@H]([C@@H](C)O)NC(=O)[C@H](CS)NC(=O)[C@H](CC(C)C)NC(=O)[C@H](CC(C)C)NC(=O)[C@H](Cc2ccccc2)NC1=O [cyclo-CTIFLL] (HELM PEPTIDE1{C.T.I.F.L.L}$PEPTIDE1,PEPTIDE1,1:R1-6:R2$$$V2.0)
chemical shift changes, FERM domain of IDOL (FERM domain of IDOL): did not observe any chemical shift changes
chemical shift changes, RING domain of IDOL (RING domain of IDOL): did not observe any chemical shift changes

Kd ([2]; read-out: Kd): ~10000 µM
Compound: CC[C@H](C)[C@@H]1NC(=O)[C@H](CC(C)C)NC(=O)[C@H]([C@@H](C)O)NC(=O)[C@H](CS)NC(=O)[C@H](Cc2ccccc2)NC(=O)[C@H](CC(C)C)NC1=O [cyclo-CTLILF] (HELM PEPTIDE1{C.T.L.I.L.F}$PEPTIDE1,PEPTIDE1,1:R1-6:R2$$$V2.0)

binding to IDOL by SPR [2]: no binding observed
Compound: CTIFLL [linear counterpart of cyclo-CTIFLL]
